In US20240398814A1, “KRAS INHIBITOR AND HDAC INHIBITOR COMBINATION FOR THE TREATMENT OF CANCER” (Northwestern University, priority 2023, published 2024):

Tests used:
KL LJE1 cells [1] = assay: qRT-PCR of chemokine (HRCG) gene expression in KL LJE1 cells; format: cell-based, mouse
Protocol: (§1) All cell lines were incubated at 37° C. and were maintained in an atmosphere containing 5% CO2. Cells were tested for Mycoplasma (Lonza) using manufacturer's conditions and were deemed negative. Cells were grown in Dulbecco's modified Eagles medium (DMEM) plus 10% fetal bovine serum (Gibco) and were continuously maintained under antibiotic selection for stable cell lines. Proliferation assays were performed by plating 2×10^3 cells per well of a 6-well plate, and cells were counted 5 days post-plating. Drug treatments were carried out using the following doses: entinostat 1 uM or 2 uM, RGFP966 10uM, TSA 0.5 uM, BRD3308 5 uM, trametinib 5 nM, 10 nM, and 25 nM, and MRTX1133 10 nM, 25 nM, and 50 nM, as indicated for the indicated treatment lengths. Media was changed and fresh drug added every 2 days.
(§2) mRNA was prepared using the Quick-RNA Miniprep kit (Zymo Research), including DNase treatment. cDNA was synthesized from 2 μg of RNA using SuperScript III (Life Technologies), and qPCR was carried out with diluted cDNA, appropriate primers, and SYBR Green PCR master mix (ThermoFisher Scientific) using a C1000 Thermal Cycler (BioRad). Relative mRNA levels were calculated using the delta Ct method, using Tbp as an internal control.

[2] = tested on: human LKB1 mutant lung cancer cells; assay: FGFR1 resistance mechanism in human LKB1 mutant lung cancer cells; format: cell-based; conditions: 9 days of trametinib treatment, entinostat treatment days 3-9 (6 days total)
KL NSCLC GEMM = assay: Short-term (5 day) in vivo entinostat treatment, qRT-PCR on lung tumors and liver; design: species or system mouse; conditions: 10 mg/kg/day entinostat, oral gavage, 5 days
Protocol: KL mice were intratracheally intubated with lentivirus expressing Cre recombinase to initiate tumorigenesis and imaged biweekly by BLI starting 4 weeks after Cre administration. When tumor burden in all mice was greater than 5×107 photons/see as determined by BLI, treatment was initiated. Mice were randomized and treated daily by oral gavage for 5 days with vehicle or 10 mg/kg entinostat. In vivo treatment doses were selected based on publications (39, 69-71). Entinostat was diluted to 1 mg/mL in vehicle (0.5% Methyl cellulose in water), vortexed, sonicated 10 minutes, and administered at 10 mg/kg. Drug and vehicle was administered starting at ˜9am daily throughout the duration of treatment. The experiment was terminated after 5 days of treatment, at which time primary lung tumors and liver were isolated by dissection and immediately flash frozen.
as §2
Next, pharmacological inhibition of HDAC3 was assessed for impacting HRCG expression in vivo as observed in cell culture experiments (FIG. 12B, 18D-G). Lung tumorigenesis was initiated in KL GEMM mice, and disease growth was monitored over time using bioluminescence imaging (BLI) potentiated by the Rosa26^LSL-luferase genetic allele. When tumor burden was established in all mice (BLI >5×10^7 photons/sec), mice were randomized and treatment was initiated. Mice were treated daily for 5 days with vehicle or 10 mg/kg/day entinostat administered by oral gavage, after which lung tumors and liver were collected (FIG. 14C). Using qRT-PCR, gene expression of HDAC3 target genes in lung tumors and liver was assessed. […] To confirm that entinostat treatment was engaging on-target effects in the liver samples, the gene expression of canonical HDAC3 liver target genes Nr1d1 and Arntl was assessed (FIG. 14E).

KL LJE1 cells [3] = assay: Western blot and qRT-PCR of FGFR1, NKX2-1 and ERK phosphorylation in drug-treated KL LJE1 cells; format: cell-based, mouse; conditions: 13 days
Protocol: as §1, §2
Protein lysates in CST buffer (20 mM Tris pH 7.5, 150 mM NaCl, 1% Triton X-100, 50 mM NaF, 1 mM EDTA, 1 mM EGTA, 2.5 mM PyroPhosphate, 2 mM beta-glycerol-phosphate, 1 mM orthovanadate, 0.01 mM Calyculan A) with protease inhibitors were equilibrated for protein levels using a BCA protein assay kit (Pierce), resolved on 8% SDS-PAGE gels, and transferred to membrane. Membranes were blocked in milk, incubated o/n at 4C in diluted primary antibody, washed with TBS-T, incubated 1 hr in secondary antibody diluted in TBS-T plus milk, washed in TBS-T, and developed using SuperSignal ECL. Secondary antibodies: anti-rabbit (Millipore AP132P) and anti-mouse (Millipore AP124P). Nuclear fractions were isolated using a NE-PER nuclear and cytoplasmic extraction kit (Thermofisher) under manufacturers conditions.

Nc1ccccc1NC(=O)c1ccc(CNC(=O)OCc2cccnc2)cc1 [entinostat]
HRCG gene expression response in cells expressing p65 WT or p65 K310A (KL LJE1 cells [1]; 3 days, 1 uM entinostat): K310 only significantly altered the gene expression response of Cc120, Cxc15, and Cc15
gene expression induction in NT versus p65 KO cells (KL LJE1 cells [1]; 3 days, 1 uM entinostat or 5 uM BRD3308): p65 facilitates maximal gene expression induction
chemokine (SASP) gene expression (KL LJE1 cells [1]; 72 hr, 2 uM entinostat or 10uM RGFP966): robust induction of gene expression
impact of Trametinib on the FGFR1 resistance mechanism [2]: reverses the impact of Trametinib on the FGFR1 resistance mechanism
Cxc110 expression in vivo, lung tumors versus liver (KL NSCLC GEMM): induced upon entinostat treatment selectively in lung tumor cells
HRCG expression in livers from the same mice (KL NSCLC GEMM): did not induce HRCG expression
HRCG expression in lung tumors (KL NSCLC GEMM): potently induced HRCG expression
Nr1d1 and Arntl gene expression in the liver (KL NSCLC GEMM): impacted Nr1d1 and Arntl gene expression in the liver
FGFR1 protein (KL LJE1 cells [3]; Western blot, 10 nM trametinib, 1 uM entinostat): neither FGFR1 protein or mRNA levels were impacted
FGFR1 mRNA levels (KL LJE1 cells [3]; qRT-PCR, 1 uM entinostat alone): neither FGFR1 protein or mRNA levels were impacted
